Data from US20070202515A1, “Promac signature application” (PATHOLOGICA, LLC., priority 2005, published 2007).

Columns and labels:
[1] = test system: subcutaneous T cell lymphoma; assay: Phase I trial of CG-47: clinical response of lymphoma; assay type: in vivo, human
From the text: As part of the clinical development of CG-47, Pathologica performed analysis on blood samples from a subset of patients currently enrolled in a Phase I trial of the safety of the investigational polyamine CG-47. The trial recruited patients who have failed conventional therapy for various lymphomas. The patients received increasing amounts of CG47 for 5 days every three weeks by infusion. The trial was a dose escalation trial in which the first 3 patients received the lowest dose, the next three a higher dose etc. One patient, a person with subcutaneous T cell lymphoma, received 4 doses of 50 mg/m^2 of CG-47 over a 12 week period. […] Relapse of the lymphoma then occurred and a final sample was obtained. Levels of CD14-16++macrophages and the LC5-CI values obtained from the baseline and various subsequent samples are presented in FIG. 10. At presentation the patient had elevated CD14-16% s (˜50%) and a strongly positive LC5-CI score (6.2). After the first cycle of CG-47 the patient entered a clinical remission of their cancer that lasted for the […] of CG-47. During their clinical remission both the CD14-16++ levels and the LC5-CI scores normalized. After the 4th cycle of CG-47 the patient experienced a relapse in their cancer and in the post relapse samples CD14-16++ levels were again elevated (50%) and their LC5-CI value had reverted to a positive score (12.9). […]

[2] = test system: G1P3, GPR43, IFIT2, ORM1, TNFSF10; assay: LC5-CI quantitative RT-PCR classification index on PBMCs; assay type: in vivo, human; conditions: same patient
From the text: Aliquots of the RNA preparations were then RT-PCR amplified using quantitative real time methods employing a Light-Cycler^36. The signals obtained were normalized against the signal obtained with primers for β-actin according to the formula Ctactin−Ctgene=NSig where Ct=the threshold cycle for the indicated gene and NSig=the normalized signal.
Therefore, we constructed a “weighted voting” scheme using the methods described by Golub and co-workers^37 for 10 of the most promising primer sets. ALS and control patients were divided into training and test sets and the actin normalized signal for each sample with each primer set was determined as described above. Then the voting weights (modified Rs) were calculated using the test samples according to the formula Mod R=(Mean ALS−Mean CON)/(StDev ALS+StDev CON) calculated using 13 ALS samples & 11 controls.
Next the inflection point or the mid point between the ALS and control samples is calculated according to MID=(MeanALS+MeanCON)/2
Then the signal for the individual primer (ICV) is calculated according to ICV=Mod R(Mean NSig−Mid)
The predictive power of the various primers was then evaluated using the test set of samples. […]

CD14-16++macrophages = assay: Levels of CD14-16++ macrophages in patient blood by flow cytometry; assay type: in vivo, human; conditions: same patient
From the text: FIG. 10: LC5-CI and Signature values in cutaneous T-cell lymphoma patient—the percent of CD14 cells also staining with antibodies to CD16 by flow cytometry (filled triangles) is plotted (left y axis) along with the LC5-CI (open triangles) determined for the same samples (right y axis). The samples include the baseline sample obtained prior to the administration of the first cycle of CG-47 (baseline, x axis), the samples obtained prior to the patient receiving the 2nd, 3rd, and 4th cycle of CG-47 (cy2, cy3, and cy4, respectively) and the final sample obtained when the patient experienced a relapse (ReLps).
As part of the clinical development of CG-47, Pathologica performed analysis on blood samples from a subset of patients currently enrolled in a Phase I trial of the safety of the investigational polyamine CG-47. The trial recruited patients who have failed conventional therapy for various lymphomas. The patients received increasing amounts of CG47 for 5 days every three weeks by infusion. The trial was a dose escalation trial in which the first 3 patients received the lowest dose, the next three a higher dose etc. One patient, a person with subcutaneous T cell lymphoma, received 4 doses of 50 mg/m^2 of CG-47 over a 12 week period. […] Relapse of the lymphoma then occurred and a final sample was obtained. […]

cancer = conditions: response not universal; cited from earlier work
[3] = ALS patients; cited from earlier work

SMILES: CCNCCCNC/C=C\CNCCCNCC.Cl.Cl.Cl.Cl [CG-47]
- duration of remission ([1]; began after administration of the first dose, 50 mg/m^2, same patient): approximately 10 weeks
- clinical response of lymphoma ([1]; one patient, 4 doses of 50 mg/m^2 over a 12 week period by infusion): very significant remission
- LC5-CI value in post relapse samples ([2]; relapse after the 4th cycle): 12.9
- LC5-CI scores during clinical remission ([2]; at presentation strongly positive (6.2)): normalized
- CD14-16++ levels in post relapse samples (CD14-16++macrophages; relapse after the 4th cycle): 50%
- CD14-16++ levels during clinical remission (CD14-16++macrophages; at presentation elevated (~50%)): normalized

SMILES: C/C(=N\N=C(N)N)c1cc(NC(=O)CCCCCCCCC(=O)Nc2cc(/C(C)=N/N=C(N)N)cc(/C(C)=N/N=C(N)N)c2)cc(/C(C)=N/N=C(N)N)c1.Cl.Cl.Cl.Cl [CNI-1493]
- efficacy against cancer in clinical trials (cancer): some level of efficacy against cancer

SMILES: CC(C=NNC(=N)N)=NNC(=N)N.Cl.Cl.O [MGBG, Methylglyoxal bis(guanylhydrazone) dihydrochloride hydrate]
- efficacy against cancer in clinical trials (cancer): some level of efficacy against cancer

SMILES: Nc1nc2ccc(OC(F)(F)F)cc2s1 [Riluzole]
- effect on disease progression [3]: only modest slowing of disease progression
